# According to US20260035365A1, “1H-PYRROLO[3,2-B]PYRIDINE DERIVATIVES AS IRREVERSIBLE INHIBITORS OF MUTANT EGFR FOR THE TREATMENT OF CANCER” (Bayer Aktiengesellschaft, priority 2022, published 2026):
# Legend:
# [1] = target: mutEGFR (D770_N771insSVD) (Homo sapiens, UniProt P00533, INS767SVD); assay: Exon20-mutant-EGFR (D770_N771insSVD) TR-FRET kinase assay; assay type: biochemical; conditions: 2 mM ATP, 15 min preincubation
# Outline: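 GST-fused human EGFR fragment R669-A1210 carrying the SVD insertion, Sf9-expressed, typically 15 pg/μl, was preincubated with compound for 15 min at 22° C in pH 7.0 Hepes/MgCl2 buffer. Phosphorylation was read by HTRF (665/620 nm ratio), normalised to no-inhibitor and no-enzyme controls.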
# BA/F3 (insSVD) cells = assay: Ba/F3 cell survival assay (Cell Titer-Glo), EGFR-insSVD; assay type: cell-based; conditions: without IL-3, with EGF
# Outline: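 Ba/F3 cells stably expressing EGFR-insSVD or insSVD T790M via retrovirus (puromycin-selected), switched from IL-3 to 10 ng/mL EGF for 2 days, then plated at 4000 cells/well. Compound added by 100 nL pin transfer; 48 h at 37° C. Viability by CellTiter-Glo luminescence.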
# [2] = target: mutEGFR (D770_N771insNPG, T790); assay: mutEGFR (D770_N771insNPG, T790) kinase assay; assay type: biochemical, human
# [3] = test system: BA/F3 (EGFR D770_N771 insSVD T790M) cells; assay: Ba/F3 cell survival assay (Cell Titer-Glo), EGFR-insSVD T790M; assay type: cell-based; conditions: Ba/F3 EGFR-D770-N771ins_SVD; 48 h, without IL-3, with EGF
# Procedure: 293T cells from ATCC were transfected with pBABEpuro expression constructs for WT EGFR or EGFR-insSVD, or EGFR-insSVD T790M, and pCL-Eco packaging vector using Fugene-6 transfection reagent from Promega. Plates were incubated at 37° C. for 48 h. Retrovirus was harvested by filtering the media supernatant through a 0.45 μm filter.
# Ba/F3 cells purchased from DSMZ were grown in RPMI+10% FBS+10 ng/mL IL-3 and infected with filtered retroviral supernatant at a 1:2 dilution. Polybrene was added to a concentration of 8 μg/mL, plates were spun for 90 min, and incubated for 16 h at 37° C. 2 μg/mL puromycin was added to the infected cells 24 h after infection and cells were continually grown in the presence of puromycin and 10 ng/mL IL-3. Following stably expressing Ba/F3 cell lines were generated: Ba/F3-EGFR-WT, Ba/F3-EGFR-insSVD, Ba/F3-EGFR-insSVD T790M, (Ba/F3-vector-control).
# For cell survival assays, Ba/F3 cells were grown to a density of 1-2 million cells per mL, spun down and resuspended in media without IL-3, and replated at a concentration of 200,000-500,000 cells per mL. The cells ectopically expressing WT EGFR, EGFR-insSVD, or EGFR-insSVD T790M were plated with 10 ng/mL Millipore Culture grade EGF. The cells ectopically expressing pBABEpuro empty vector were plated with 10 ng/mL IL-3.
# 2 days later, cells were plated in 50 μL in a 384 well plate at a concentration of 4000 cells per well for cells assayed in the absence of IL-3 and 2000 cells per well for cells assayed in the presence of IL-3. 100 nL of compound was added to each well using a 100 nL pin head, and plates were incubated at 37° C. for 48 h.
# Cell viability was measured by adding 20 μL of Cell Titer-Glo Luminescent Cell Viability Reagent diluted 1:3 in PBS. Plates were sealed with Perkin Elmer Top-Seal, inverted several times to mix, and immediately centrifuged at 1000 rpm for 2 min. Plates were incubated in low light conditions for 8-10 min and luminescence was measured.
# mutEGFR (D770_N771insSVD), sequence (P00533 with tags, fused parts or gaps INS767SVD limits assumed): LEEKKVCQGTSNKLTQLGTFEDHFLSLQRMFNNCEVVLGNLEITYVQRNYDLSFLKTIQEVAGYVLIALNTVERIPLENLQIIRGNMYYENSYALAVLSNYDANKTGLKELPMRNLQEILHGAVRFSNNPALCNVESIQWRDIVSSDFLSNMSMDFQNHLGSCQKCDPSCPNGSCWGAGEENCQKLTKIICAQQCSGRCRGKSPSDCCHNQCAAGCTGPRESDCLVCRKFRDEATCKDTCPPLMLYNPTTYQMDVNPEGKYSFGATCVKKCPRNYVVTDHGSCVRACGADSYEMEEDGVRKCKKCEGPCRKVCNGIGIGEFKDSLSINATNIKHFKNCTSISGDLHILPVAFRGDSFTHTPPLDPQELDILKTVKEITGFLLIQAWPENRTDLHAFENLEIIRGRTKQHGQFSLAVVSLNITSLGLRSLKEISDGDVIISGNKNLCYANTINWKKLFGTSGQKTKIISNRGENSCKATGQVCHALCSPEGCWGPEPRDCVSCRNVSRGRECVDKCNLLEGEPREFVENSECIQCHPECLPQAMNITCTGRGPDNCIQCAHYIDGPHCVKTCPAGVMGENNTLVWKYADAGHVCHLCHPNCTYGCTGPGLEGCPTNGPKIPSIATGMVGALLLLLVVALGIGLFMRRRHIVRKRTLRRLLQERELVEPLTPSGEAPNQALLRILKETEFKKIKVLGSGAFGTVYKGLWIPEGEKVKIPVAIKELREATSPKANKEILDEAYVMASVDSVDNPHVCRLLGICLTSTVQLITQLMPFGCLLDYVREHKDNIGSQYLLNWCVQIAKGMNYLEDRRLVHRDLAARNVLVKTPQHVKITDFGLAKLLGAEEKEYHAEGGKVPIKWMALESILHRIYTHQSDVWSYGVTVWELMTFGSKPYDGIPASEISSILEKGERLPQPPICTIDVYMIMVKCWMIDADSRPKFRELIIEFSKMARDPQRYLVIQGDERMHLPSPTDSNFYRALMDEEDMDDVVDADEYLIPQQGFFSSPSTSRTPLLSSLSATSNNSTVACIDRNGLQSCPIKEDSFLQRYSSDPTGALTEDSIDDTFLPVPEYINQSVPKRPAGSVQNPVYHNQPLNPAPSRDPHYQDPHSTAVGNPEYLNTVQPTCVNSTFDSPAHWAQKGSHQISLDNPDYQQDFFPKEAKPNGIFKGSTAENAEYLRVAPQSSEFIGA
# mutEGFR (D770_N771insNPG, T790), sequence (P00533 with tags, fused parts or gaps INS770NPG limits assumed): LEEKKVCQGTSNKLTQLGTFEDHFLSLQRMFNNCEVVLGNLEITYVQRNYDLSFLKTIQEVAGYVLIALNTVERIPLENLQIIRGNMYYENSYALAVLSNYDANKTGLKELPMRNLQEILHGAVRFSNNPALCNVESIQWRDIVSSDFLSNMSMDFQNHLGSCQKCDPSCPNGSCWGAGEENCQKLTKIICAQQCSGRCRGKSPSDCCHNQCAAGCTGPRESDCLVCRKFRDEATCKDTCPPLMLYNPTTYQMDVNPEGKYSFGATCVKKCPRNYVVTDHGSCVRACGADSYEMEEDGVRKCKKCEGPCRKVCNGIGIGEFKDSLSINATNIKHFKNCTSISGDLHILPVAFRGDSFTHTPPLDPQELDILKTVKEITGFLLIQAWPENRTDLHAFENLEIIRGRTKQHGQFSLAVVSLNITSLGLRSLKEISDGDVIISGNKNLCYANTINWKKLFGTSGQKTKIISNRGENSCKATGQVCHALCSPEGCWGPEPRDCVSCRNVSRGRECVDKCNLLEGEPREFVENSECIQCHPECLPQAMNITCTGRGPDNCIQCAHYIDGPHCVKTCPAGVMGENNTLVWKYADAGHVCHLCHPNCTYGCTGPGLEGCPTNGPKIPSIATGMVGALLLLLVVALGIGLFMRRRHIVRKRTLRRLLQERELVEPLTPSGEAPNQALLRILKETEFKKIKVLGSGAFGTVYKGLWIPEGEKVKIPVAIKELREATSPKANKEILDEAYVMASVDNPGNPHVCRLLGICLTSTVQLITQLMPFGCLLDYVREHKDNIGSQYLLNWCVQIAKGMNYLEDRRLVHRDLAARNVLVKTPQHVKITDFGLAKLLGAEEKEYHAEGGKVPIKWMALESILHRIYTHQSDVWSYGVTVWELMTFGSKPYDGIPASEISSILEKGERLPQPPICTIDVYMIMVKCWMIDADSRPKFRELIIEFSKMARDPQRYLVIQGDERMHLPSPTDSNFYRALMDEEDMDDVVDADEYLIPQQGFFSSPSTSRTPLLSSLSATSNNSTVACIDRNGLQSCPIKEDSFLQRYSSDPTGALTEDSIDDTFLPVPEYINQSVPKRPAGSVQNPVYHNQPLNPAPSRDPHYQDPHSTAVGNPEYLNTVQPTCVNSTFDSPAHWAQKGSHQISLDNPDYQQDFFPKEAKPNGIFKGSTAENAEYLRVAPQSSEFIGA
Structure (SMILES),IC50 [1] [nM],"IC50 (BA/F3 (insSVD) cells; Mus musculus, BaF3, 48 h) [nM]",IC50 [2] [nM],IC50 [3] [nM],IC50 (BA/F3 (insSVD) cells; 48 h) [nM]
"C=CS(=O)(=O)N1CCC[C@H]1COc1cnccc1-c1[nH]c2cccnc2c1-c1cccc(C(F)(F)F)c1 [Example 38, 2-(3-{[(2S)-1-(ethenesulfonyl)pyrrolidin-2-yl]methoxy}pyridin-4-yl)-3-[3-(trifluoromethyl)phenyl]-1H-pyrrolo[3,2-b]pyridine]",0.404,20.1,1.05,147,–
"C=CC(=O)N(C)CCOc1cnccc1-c1[nH]c2cccnc2c1-c1cc(Cl)cc(Cl)c1 [Example 31, N-[2-({4-[3-(3,5-dichlorophenyl)-1H-pyrrolo[3,2-b]pyridin-2-yl]pyridin-3-yl}oxy)ethyl]-N-methylprop-2-enamide]",931,5530,391,9980,–
"CN(C)C/C=C/C(=O)N1CCC[C@H]1COc1cnccc1-c1[nH]c2cccnc2c1-c1cccc(C(F)(F)F)c1 [Example 96, (2E)-4-(dimethylamino)-1-[(2S)-2-{[(4-{3-[3-(trifluoromethyl)phenyl]-1H-pyrrolo[3,2-b]pyridin-2-yl}pyridin-3-yl)oxy]methyl}pyrrolidin-1-yl]but-2-en-1-one]",3.45,373,22.1,–,–
"C=CC(=O)N1CCC[C@H]1COc1cnccc1-c1[nH]c2cccnc2c1-c1cccc(C#N)c1 [Example 87, 3-[2-(3-{[(2S)-1-(prop-2-enoyl)pyrrolidin-2-yl]methoxy}pyridin-4-yl)-1H-pyrrolo[3,2-b]pyridin-3-yl]benzonitrile]",15.2,759,33.8,–,–
"C=CS(=O)(=O)N(C)CCOc1cnccc1-c1[nH]c2cccnc2c1-c1cc(CC)ccc1F [Example 67, N-[2-({4-[3-(5-ethyl-2-fluorophenyl)-1H-pyrrolo[3,2-b]pyridin-2-yl]pyridin-3-yl}oxy)ethyl]-N-methylethenesulfonamide]",3.01,418,14.6,–,–
"C=CC(=O)N1CCC[C@H]1COc1cnccc1-c1[nH]c2cccnc2c1-c1ccc2ccsc2c1 [Example 81, 1-{(2S)-2-[({4-[3-(1-benzothiophen-6-yl)-1H-pyrrolo[3,2-b]pyridin-2-yl]pyridin-3-yl}oxy)methyl]pyrrolidin-1-yl}prop-2-en-1-one]",0.391,57.4,1.29,–,–
"C=CC(=O)N(C)CCOc1cnccc1-c1[nH]c2cccnc2c1-c1ccc2ccsc2c1 [Example 44, N-[2-({4-[3-(1-benzothiophen-6-yl)-1H-pyrrolo[3,2-b]pyridin-2-yl]pyridin-3-yl}oxy)ethyl]-N-methylprop-2-enamide]",21.1,999,64,–,–
"CC#CC(=O)N1CCC[C@H]1COc1cnccc1-c1[nH]c2cccnc2c1-c1ccccc1 [Example 94, 1-[(2S)-2-({[4-(3-phenyl-1H-pyrrolo[3,2-b]pyridin-2-yl)pyridin-3-yl]oxy}methyl)pyrrolidin-1-yl]but-2-yn-1-one]",365,2440,> 1630,–,–
"C=CS(=O)(=O)N1CCC[C@H]1COc1cnccc1-c1[nH]c2cccnc2c1-c1ccc(F)c(OC(F)(F)F)c1 [Example 108, 2-(3-{[(2S)-1-(ethenesulfonyl)pyrrolidin-2-yl]methoxy}pyridin-4-yl)-3-[4-fluoro-3-(trifluoromethoxy)phenyl]-1H-pyrrolo[3,2-b]pyridine]",0.557,70.4,2.41,–,–
"C=CC(=O)N1CCC[C@H]1COc1cnccc1-c1[nH]c2cccnc2c1-c1cc(C(F)(F)F)ccc1F [Example 76, 1-[(2S)-2-{[(4-{3-[2-fluoro-5-(trifluoromethyl)phenyl]-1H-pyrrolo[3,2-b]pyridin-2-yl}pyridin-3-yl)oxy]methyl}pyrrolidin-1-yl]prop-2-en-1-one]",2.78,97.9,9.46,–,–
"C=CC(=O)N(C)CCOc1cnccc1-c1[nH]c2cccnc2c1-c1ccccc1CC [Example 53, N-[2-({4-[3-(2-ethylphenyl)-1H-pyrrolo[3,2-b]pyridin-2-yl]pyridin-3-yl}oxy)ethyl]-N-methylprop-2-enamide]",112,3270,744,–,–
"C=CS(=O)(=O)N(C)CCOc1cnccc1-c1[nH]c2cccnc2c1-c1cccc(CC)c1 [Example 63, N-[2-({4-[3-(3-ethylphenyl)-1H-pyrrolo[3,2-b]pyridin-2-yl]pyridin-3-yl}oxy)ethyl]-N-methylethenesulfonamide]",1.44,455,5.88,–,–
"C=CS(=O)(=O)N1CCC(Oc2cnccc2-c2[nH]c3cccnc3c2-c2ccccc2)C1 (racemic) [Example 118, 2-(3-{[(3RS)-1-(ethenesulfonyl)pyrrolidin-3-yl]oxy}pyridin-4-yl)-3-phenyl-1H-pyrrolo[3,2-b]pyridine]",16.8,723,79.9,–,–
"C=CS(=O)(=O)N(C)CCOc1cnccc1-c1[nH]c2cccnc2c1-c1cccc(OC)c1 [Example 69, N-[2-({4-[3-(3-methoxyphenyl)-1H-pyrrolo[3,2-b]pyridin-2-yl]pyridin-3-yl}oxy)ethyl]-N-methylethenesulfonamide]",3.65,287,8.7,–,–
"C=CC(=O)N(C)CCOc1cnccc1-c1[nH]c2cccnc2c1-c1cccc(OC(F)(F)F)c1 [Example 58, N-methyl-N-{2-[(4-{3-[3-(trifluoromethoxy)phenyl]-1H-pyrrolo[3,2-b]pyridin-2-yl}pyridin-3-yl)oxy]ethyl}prop-2-enamide]",249,6280,1160,–,–
"C/C=C/C(=O)N1CCC[C@H]1COc1cnccc1-c1[nH]c2cccnc2c1-c1ccccc1 [Example 92, (2E)-1-[(2S)-2-({[4-(3-phenyl-1H-pyrrolo[3,2-b]pyridin-2-yl)pyridin-3-yl]oxy}methyl)pyrrolidin-1-yl]but-2-en-1-one]",3750,7050,> 20000,–,–
"C=CS(=O)(=O)N(C)CCOc1cnccc1-c1[nH]c2cccnc2c1-c1cc(Cl)cc(Cl)c1 [Example 75, N-[2-({4-[3-(3,5-dichlorophenyl)-1H-pyrrolo[3,2-b]pyridin-2-yl]pyridin-3-yl}oxy)ethyl]-N-methylethenesulfonamide]",45,2020,26.1,–,–
"C=CC(=O)N1C[C@@H](N(C)CCN(C)C)C[C@H]1COc1cnccc1-c1[nH]c2cccnc2c1-c1ccccc1 (single isomer, unassigned) [Example 131]",1.17,–,3.58,–,54.6
"C=CC(=O)N1CCC[C@H]1COc1cncc(F)c1-c1[nH]c2cccnc2c1-c1cc(Cl)ccc1F [Example 129, 1-{(2S)-2-[({4-[3-(5-chloro-2-fluorophenyl)-1H-pyrrolo[3,2-b]pyridin-2-yl]-5-fluoropyridin-3-yl}oxy)methyl]pyrrolidin-1-yl}prop-2-en-1-one]",1,110,92.6,–,–
"C=CS(=O)(=O)N1CC[C@H]1COc1cnccc1-c1[nH]c2cccnc2c1-c1ccccc1 (single isomer, unassigned) [Example 141]",0.596,231,2.21,–,–
"C=CC(=O)N1CCC[C@H]1COc1cnccc1-c1[nH]c2cccnc2c1-c1ccc2ccoc2c1 [Example 82, 1-{(2S)-2-[({4-[3-(1-benzofuran-6-yl)-1H-pyrrolo[3,2-b]pyridin-2-yl]pyridin-3-yl}oxy)methyl]pyrrolidin-1-yl}prop-2-en-1-one]",0.267,36.8,0.837,–,–
"Cn1ccc(C#CC(=O)N2CCC[C@H]2COc2cnccc2-c2[nH]c3cccnc3c2-c2ccccc2)n1 [Example 95, 3-(1-methyl-1H-pyrazol-3-yl)-1-[(2S)-2-({[4-(3-phenyl-1H-pyrrolo[3,2-b]pyridin-2-yl)pyridin-3-yl]oxy}methyl)pyrrolidin-1-yl]prop-2-yn-1-one]",71.2,682,246,–,–
